According to the NIST ThermoML archive (doi:10.1016/j.jct.2012.03.031):
“And” between values parts separate entries of the source, which are not always exact repeats. Equal entries are not always repeated.

Assay: molar heat capacity at constant pressure
Conditions: 101.33 kPa

CCCCc1ccc(C(=O)Oc2ccc(C#N)c(F)c2)cc1 [4-cyano-3-fluorophenyl 4-butylbenzoate]
Conditions	molar heat capacity at constant pressure
61.92 K, Crystal 1, Small (less than 1 g) adiabatic calorimetry	106.31 J/K/mol
63.2 K, Crystal 1, Small (less than 1 g) adiabatic calorimetry	108.1 J/K/mol
63.41 K, Crystal 1, Small (less than 1 g) adiabatic calorimetry	108.62 J/K/mol
63.57 K, Crystal 2, Small (less than 1 g) adiabatic calorimetry	113.15 J/K/mol
64.91 K, Crystal 1, Small (less than 1 g) adiabatic calorimetry	110.74 J/K/mol
65.24 K, Crystal 2, Small (less than 1 g) adiabatic calorimetry	115.68 J/K/mol
65.3 K, Crystal 1, Small (less than 1 g) adiabatic calorimetry	111.15 J/K/mol
66.41 K, Crystal 1, Small (less than 1 g) adiabatic calorimetry	112.9 J/K/mol
66.93 K, Crystal 2, Small (less than 1 g) adiabatic calorimetry	118.1 J/K/mol
67.38 K, Crystal 1, Small (less than 1 g) adiabatic calorimetry	114.12 J/K/mol
67.91 K, Crystal 1, Small (less than 1 g) adiabatic calorimetry	115.02 J/K/mol
68.62 K, Crystal 2, Small (less than 1 g) adiabatic calorimetry	120.58 J/K/mol
69.41 K, Crystal 1, Small (less than 1 g) adiabatic calorimetry	117.19 J/K/mol
69.46 K, Crystal 1, Small (less than 1 g) adiabatic calorimetry	117 J/K/mol
70 K, Crystal 1, Vacuum adiabatic calorimetry	117.76 J/K/mol
70 K, Crystal 2, Vacuum adiabatic calorimetry	122.57 J/K/mol
70.32 K, Crystal 2, Small (less than 1 g) adiabatic calorimetry	123.03 J/K/mol
70.92 K, Crystal 1, Small (less than 1 g) adiabatic calorimetry	119.27 J/K/mol
71.53 K, Crystal 1, Small (less than 1 g) adiabatic calorimetry	119.9 J/K/mol
72.11 K, Crystal 2, Small (less than 1 g) adiabatic calorimetry	125.5 J/K/mol
72.44 K, Crystal 1, Small (less than 1 g) adiabatic calorimetry	121.32 J/K/mol
73.59 K, Crystal 1, Small (less than 1 g) adiabatic calorimetry	122.75 J/K/mol
73.96 K, Crystal 1, Small (less than 1 g) adiabatic calorimetry	123.47 J/K/mol
74.05 K, Crystal 2, Small (less than 1 g) adiabatic calorimetry	128.27 J/K/mol
75.49 K, Crystal 1, Small (less than 1 g) adiabatic calorimetry	125.48 J/K/mol
75.66 K, Crystal 1, Small (less than 1 g) adiabatic calorimetry	125.55 J/K/mol
76.08 K, Crystal 2, Small (less than 1 g) adiabatic calorimetry	131.11 J/K/mol
77.02 K, Crystal 1, Small (less than 1 g) adiabatic calorimetry	127.52 J/K/mol
77.72 K, Crystal 1, Small (less than 1 g) adiabatic calorimetry	128.25 J/K/mol
78.1 K, Crystal 2, Small (less than 1 g) adiabatic calorimetry	133.74 J/K/mol
78.56 K, Crystal 1, Small (less than 1 g) adiabatic calorimetry	129.55 J/K/mol
79.79 K, Crystal 1, Small (less than 1 g) adiabatic calorimetry	130.94 J/K/mol
80 K, Crystal 1, Vacuum adiabatic calorimetry	131.22 J/K/mol
80 K, Crystal 2, Vacuum adiabatic calorimetry	136.34 J/K/mol
80.1 K, Crystal 1, Small (less than 1 g) adiabatic calorimetry	131.58 J/K/mol
80.14 K, Crystal 2, Small (less than 1 g) adiabatic calorimetry	136.53 J/K/mol
81.65 K, Crystal 1, Small (less than 1 g) adiabatic calorimetry	133.56 J/K/mol
81.86 K, Crystal 1, Small (less than 1 g) adiabatic calorimetry	133.65 J/K/mol
82.17 K, Crystal 2, Small (less than 1 g) adiabatic calorimetry	139.24 J/K/mol
83.21 K, Crystal 1, Small (less than 1 g) adiabatic calorimetry	135.55 J/K/mol
83.93 K, Crystal 1, Small (less than 1 g) adiabatic calorimetry	136.28 J/K/mol
84.22 K, Crystal 2, Small (less than 1 g) adiabatic calorimetry	141.95 J/K/mol
84.77 K, Crystal 1, Small (less than 1 g) adiabatic calorimetry	137.59 J/K/mol
86 K, Crystal 1, Small (less than 1 g) adiabatic calorimetry	138.9 J/K/mol
86.27 K, Crystal 2, Small (less than 1 g) adiabatic calorimetry	144.59 J/K/mol
86.34 K, Crystal 1, Small (less than 1 g) adiabatic calorimetry	139.51 J/K/mol
87.92 K, Crystal 1, Small (less than 1 g) adiabatic calorimetry	141.49 J/K/mol
88.19 K, Crystal 1, Small (less than 1 g) adiabatic calorimetry	141.58 J/K/mol
88.32 K, Crystal 2, Small (less than 1 g) adiabatic calorimetry	147.21 J/K/mol
89.5 K, Crystal 1, Small (less than 1 g) adiabatic calorimetry	143.41 J/K/mol
90 K, Crystal 1, Vacuum adiabatic calorimetry	143.78 J/K/mol
90 K, Crystal 2, Vacuum adiabatic calorimetry	149.41 J/K/mol
90.38 K, Crystal 2, Small (less than 1 g) adiabatic calorimetry	149.91 J/K/mol
90.49 K, Crystal 1, Small (less than 1 g) adiabatic calorimetry	144.38 J/K/mol
91.1 K, Crystal 1, Small (less than 1 g) adiabatic calorimetry	145.38 J/K/mol
92.46 K, Crystal 2, Small (less than 1 g) adiabatic calorimetry	152.54 J/K/mol
92.69 K, Crystal 1, Small (less than 1 g) adiabatic calorimetry	147.26 J/K/mol
92.79 K, Crystal 1, Small (less than 1 g) adiabatic calorimetry	147.14 J/K/mol
94.3 K, Crystal 1, Small (less than 1 g) adiabatic calorimetry	149.22 J/K/mol
94.53 K, Crystal 2, Small (less than 1 g) adiabatic calorimetry	155.21 J/K/mol
95.09 K, Crystal 1, Small (less than 1 g) adiabatic calorimetry	149.9 J/K/mol
95.91 K, Crystal 1, Small (less than 1 g) adiabatic calorimetry	151.12 J/K/mol
96.62 K, Crystal 2, Small (less than 1 g) adiabatic calorimetry	157.81 J/K/mol
97.38 K, Crystal 1, Small (less than 1 g) adiabatic calorimetry	152.62 J/K/mol
97.53 K, Crystal 1, Small (less than 1 g) adiabatic calorimetry	153.02 J/K/mol
98.72 K, Crystal 2, Small (less than 1 g) adiabatic calorimetry	160.47 J/K/mol
99.17 K, Crystal 1, Small (less than 1 g) adiabatic calorimetry	154.93 J/K/mol
99.68 K, Crystal 1, Small (less than 1 g) adiabatic calorimetry	155.3 J/K/mol
100 K, Crystal 1, Vacuum adiabatic calorimetry	155.66 J/K/mol
100 K, Crystal 2, Vacuum adiabatic calorimetry	162.05 J/K/mol
100.8 K, Crystal 1, Small (less than 1 g) adiabatic calorimetry	156.84 J/K/mol
100.83 K, Crystal 2, Small (less than 1 g) adiabatic calorimetry	163.07 J/K/mol
101.98 K, Crystal 1, Small (less than 1 g) adiabatic calorimetry	157.93 J/K/mol
102.45 K, Crystal 1, Small (less than 1 g) adiabatic calorimetry	158.74 J/K/mol
102.94 K, Crystal 2, Small (less than 1 g) adiabatic calorimetry	165.76 J/K/mol
104.1 K, Crystal 1, Small (less than 1 g) adiabatic calorimetry	160.69 J/K/mol
104.29 K, Crystal 1, Small (less than 1 g) adiabatic calorimetry	160.64 J/K/mol
105.07 K, Crystal 2, Small (less than 1 g) adiabatic calorimetry	168.36 J/K/mol
105.76 K, Crystal 1, Small (less than 1 g) adiabatic calorimetry	162.57 J/K/mol
106.6 K, Crystal 1, Small (less than 1 g) adiabatic calorimetry	163.27 J/K/mol
107.21 K, Crystal 2, Small (less than 1 g) adiabatic calorimetry	170.99 J/K/mol
107.43 K, Crystal 1, Small (less than 1 g) adiabatic calorimetry	164.48 J/K/mol
108.92 K, Crystal 1, Small (less than 1 g) adiabatic calorimetry	165.88 J/K/mol
109.11 K, Crystal 1, Small (less than 1 g) adiabatic calorimetry	166.36 J/K/mol
109.36 K, Crystal 2, Small (less than 1 g) adiabatic calorimetry	173.6 J/K/mol
110 K, Crystal 1, Vacuum adiabatic calorimetry	167.09 J/K/mol
110 K, Crystal 2, Vacuum adiabatic calorimetry	174.41 J/K/mol
110.8 K, Crystal 1, Small (less than 1 g) adiabatic calorimetry	168.33 J/K/mol
111.24 K, Crystal 1, Small (less than 1 g) adiabatic calorimetry	168.49 J/K/mol
111.51 K, Crystal 2, Small (less than 1 g) adiabatic calorimetry	176.31 J/K/mol
112.5 K, Crystal 1, Small (less than 1 g) adiabatic calorimetry	170.17 J/K/mol
113.57 K, Crystal 1, Small (less than 1 g) adiabatic calorimetry	171.15 J/K/mol
113.68 K, Crystal 2, Small (less than 1 g) adiabatic calorimetry	178.98 J/K/mol
114.2 K, Crystal 1, Small (less than 1 g) adiabatic calorimetry	172.16 J/K/mol
115.87 K, Crystal 2, Small (less than 1 g) adiabatic calorimetry	181.77 J/K/mol
115.91 K, Crystal 1, Small (less than 1 g) adiabatic calorimetry	173.74 J/K/mol and 174.07 J/K/mol
117.64 K, Crystal 1, Small (less than 1 g) adiabatic calorimetry	175.95 J/K/mol
118.06 K, Crystal 2, Small (less than 1 g) adiabatic calorimetry	184.44 J/K/mol
118.26 K, Crystal 1, Small (less than 1 g) adiabatic calorimetry	176.37 J/K/mol
119.36 K, Crystal 1, Small (less than 1 g) adiabatic calorimetry	177.93 J/K/mol
120 K, Crystal 1, Vacuum adiabatic calorimetry	178.29 J/K/mol
120 K, Crystal 2, Vacuum adiabatic calorimetry	186.87 J/K/mol
120.27 K, Crystal 2, Small (less than 1 g) adiabatic calorimetry	187.2 J/K/mol
120.61 K, Crystal 1, Small (less than 1 g) adiabatic calorimetry	178.97 J/K/mol
121.1 K, Crystal 1, Small (less than 1 g) adiabatic calorimetry	179.82 J/K/mol
122.48 K, Crystal 2, Small (less than 1 g) adiabatic calorimetry	189.96 J/K/mol
122.85 K, Crystal 1, Small (less than 1 g) adiabatic calorimetry	181.85 J/K/mol
122.98 K, Crystal 1, Small (less than 1 g) adiabatic calorimetry	181.61 J/K/mol
124.61 K, Crystal 1, Small (less than 1 g) adiabatic calorimetry	182.88 J/K/mol
124.71 K, Crystal 2, Small (less than 1 g) adiabatic calorimetry	192.76 J/K/mol
125.35 K, Crystal 1, Small (less than 1 g) adiabatic calorimetry	184.23 J/K/mol
126.37 K, Crystal 1, Small (less than 1 g) adiabatic calorimetry	185.75 J/K/mol
126.95 K, Crystal 2, Small (less than 1 g) adiabatic calorimetry	195.55 J/K/mol
127.73 K, Crystal 1, Small (less than 1 g) adiabatic calorimetry	186.92 J/K/mol
128.14 K, Crystal 1, Small (less than 1 g) adiabatic calorimetry	187.6 J/K/mol
129.2 K, Crystal 2, Small (less than 1 g) adiabatic calorimetry	198.34 J/K/mol
129.93 K, Crystal 1, Small (less than 1 g) adiabatic calorimetry	189.59 J/K/mol
130 K, Crystal 1, Vacuum adiabatic calorimetry	189.39 J/K/mol
130 K, Crystal 2, Vacuum adiabatic calorimetry	199.38 J/K/mol
130.12 K, Crystal 1, Small (less than 1 g) adiabatic calorimetry	189.53 J/K/mol
131.47 K, Crystal 2, Small (less than 1 g) adiabatic calorimetry	201.3 J/K/mol
131.72 K, Crystal 1, Small (less than 1 g) adiabatic calorimetry	191.62 J/K/mol
132.53 K, Crystal 1, Small (less than 1 g) adiabatic calorimetry	192.14 J/K/mol
133.51 K, Crystal 1, Small (less than 1 g) adiabatic calorimetry	193.32 J/K/mol
133.74 K, Crystal 2, Small (less than 1 g) adiabatic calorimetry	204.25 J/K/mol
134.94 K, Crystal 1, Small (less than 1 g) adiabatic calorimetry	194.79 J/K/mol
135.4 K, Crystal 1, Small (less than 1 g) adiabatic calorimetry	195.42 J/K/mol
136.03 K, Crystal 2, Small (less than 1 g) adiabatic calorimetry	207.21 J/K/mol
137.37 K, Crystal 1, Small (less than 1 g) adiabatic calorimetry	197.39 J/K/mol and 197.54 J/K/mol
138.33 K, Crystal 2, Small (less than 1 g) adiabatic calorimetry	210.2 J/K/mol
139.32 K, Crystal 1, Small (less than 1 g) adiabatic calorimetry	199.71 J/K/mol
139.8 K, Crystal 1, Small (less than 1 g) adiabatic calorimetry	200.05 J/K/mol
140 K, Crystal 1, Vacuum adiabatic calorimetry	200.27 J/K/mol
140 K, Crystal 2, Vacuum adiabatic calorimetry	212.43 J/K/mol
140.64 K, Crystal 2, Small (less than 1 g) adiabatic calorimetry	213.3 J/K/mol
